Measured values: ChEMBL document CHEMBL1909046, “DrugMatrix in vitro pharmacology data”

Experiments:
Nitric oxide synthase 1 = Nitric oxide synthase 1 (Rattus norvegicus, UniProt P29476); format: tissue-based, Cerebellum; further: in other assays of this panel Not Active means under 50% inhibition at 10 µM
[1] = DRUGMATRIX: Purinergic P2X radioligand binding (ligand: [3H] alpha, beta-Methylene-ATP); format: cell membranes, Oryctolagus cuniculus, New Zealand albino, Urinary bladder, Membrane; conditions: Not Active = under 50% inhibition at 10 µM
Substance-P receptor = Substance-P receptor (Homo sapiens, UniProt P25103); format: cell membranes, Membrane; conditions: cho; further: in other assays of this panel Not Active means under 50% inhibition at 10 µM
Sequence of Substance-P receptor (P25103 whole entry): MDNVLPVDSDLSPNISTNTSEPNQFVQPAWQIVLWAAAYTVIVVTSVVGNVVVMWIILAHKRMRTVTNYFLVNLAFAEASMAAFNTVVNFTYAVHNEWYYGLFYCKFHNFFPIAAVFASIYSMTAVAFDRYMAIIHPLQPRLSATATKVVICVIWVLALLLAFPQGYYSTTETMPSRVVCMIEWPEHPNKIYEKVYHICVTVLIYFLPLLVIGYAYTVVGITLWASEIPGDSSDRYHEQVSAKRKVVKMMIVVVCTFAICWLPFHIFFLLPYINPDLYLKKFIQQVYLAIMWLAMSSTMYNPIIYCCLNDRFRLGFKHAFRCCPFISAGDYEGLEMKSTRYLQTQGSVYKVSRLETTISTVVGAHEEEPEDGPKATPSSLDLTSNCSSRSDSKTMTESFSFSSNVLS

Cytochrome P450 3A4 = Cytochrome P450 3A4 (Homo sapiens, UniProt P08684); conditions: bti-tn-5b1-4; further: in other assays of this panel Not Active means under 50% inhibition at 10 µM
Sequence of Cytochrome P450 3A4 (P08684 whole entry): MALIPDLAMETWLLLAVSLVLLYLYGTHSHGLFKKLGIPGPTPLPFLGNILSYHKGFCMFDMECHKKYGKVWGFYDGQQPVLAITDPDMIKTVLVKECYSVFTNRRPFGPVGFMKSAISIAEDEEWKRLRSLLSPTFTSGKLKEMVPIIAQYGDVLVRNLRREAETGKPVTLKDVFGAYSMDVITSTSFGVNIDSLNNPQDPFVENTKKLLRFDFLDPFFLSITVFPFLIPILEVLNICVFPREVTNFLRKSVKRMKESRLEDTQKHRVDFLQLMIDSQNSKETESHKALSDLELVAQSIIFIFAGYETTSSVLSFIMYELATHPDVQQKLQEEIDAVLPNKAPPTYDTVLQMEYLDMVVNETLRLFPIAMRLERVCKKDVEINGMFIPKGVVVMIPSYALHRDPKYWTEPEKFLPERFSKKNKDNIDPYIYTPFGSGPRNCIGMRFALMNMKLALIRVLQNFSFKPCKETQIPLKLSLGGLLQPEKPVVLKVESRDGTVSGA

Melanocortin receptor 4 = Melanocortin receptor 4 (Homo sapiens, UniProt P32245); format: cell membranes, Membrane; conditions: hek293; further: in other assays of this panel Not Active means under 50% inhibition at 10 µM
Sequence of Melanocortin receptor 4 (P32245 whole entry): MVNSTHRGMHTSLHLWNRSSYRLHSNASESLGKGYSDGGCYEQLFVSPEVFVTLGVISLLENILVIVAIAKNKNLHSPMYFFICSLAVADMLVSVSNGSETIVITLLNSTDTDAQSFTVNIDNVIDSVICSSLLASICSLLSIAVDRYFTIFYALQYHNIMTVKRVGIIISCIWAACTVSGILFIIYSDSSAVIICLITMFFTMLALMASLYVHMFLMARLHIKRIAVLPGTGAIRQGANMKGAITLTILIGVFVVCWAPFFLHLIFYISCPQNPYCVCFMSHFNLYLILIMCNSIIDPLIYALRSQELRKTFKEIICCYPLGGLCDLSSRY

Caspase-1 = target: T1, Caspase-1 (Homo sapiens, UniProt P29466); design: species or system Escherichia coli
T1 sequence (P29466 whole entry): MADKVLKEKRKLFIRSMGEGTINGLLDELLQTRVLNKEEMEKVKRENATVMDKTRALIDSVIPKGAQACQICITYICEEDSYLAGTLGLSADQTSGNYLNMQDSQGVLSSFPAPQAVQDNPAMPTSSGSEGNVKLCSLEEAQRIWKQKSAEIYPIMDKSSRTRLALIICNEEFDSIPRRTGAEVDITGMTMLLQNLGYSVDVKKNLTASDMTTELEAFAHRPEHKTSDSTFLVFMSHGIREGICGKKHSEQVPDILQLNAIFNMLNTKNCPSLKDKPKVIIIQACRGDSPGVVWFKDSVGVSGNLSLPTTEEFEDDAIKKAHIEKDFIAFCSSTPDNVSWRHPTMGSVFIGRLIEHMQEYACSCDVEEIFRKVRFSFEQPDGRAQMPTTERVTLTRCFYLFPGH

[2] = target: 5-hydroxytryptamine receptor 2B (Homo sapiens, UniProt P41595); format: cell membranes, CHO-K1, Membrane; further: in other assays of this panel Not Active means under 50% inhibition at 10 µM
Sequence of 5-hydroxytryptamine receptor 2B (P41595 whole entry): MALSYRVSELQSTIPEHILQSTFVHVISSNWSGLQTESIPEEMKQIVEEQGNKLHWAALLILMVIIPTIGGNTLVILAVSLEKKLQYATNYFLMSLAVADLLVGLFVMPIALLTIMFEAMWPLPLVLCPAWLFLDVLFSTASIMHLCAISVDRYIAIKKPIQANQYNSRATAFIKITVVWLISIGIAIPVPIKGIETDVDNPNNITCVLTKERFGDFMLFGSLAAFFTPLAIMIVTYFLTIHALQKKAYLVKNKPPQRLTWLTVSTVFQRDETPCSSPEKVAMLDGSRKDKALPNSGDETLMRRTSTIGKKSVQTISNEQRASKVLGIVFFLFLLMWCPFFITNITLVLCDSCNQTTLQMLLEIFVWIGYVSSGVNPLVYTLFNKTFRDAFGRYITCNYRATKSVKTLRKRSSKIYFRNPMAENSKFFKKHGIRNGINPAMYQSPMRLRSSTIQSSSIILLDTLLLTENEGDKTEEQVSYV

Sequence of Nitric oxide synthase 1 (P29476 whole entry): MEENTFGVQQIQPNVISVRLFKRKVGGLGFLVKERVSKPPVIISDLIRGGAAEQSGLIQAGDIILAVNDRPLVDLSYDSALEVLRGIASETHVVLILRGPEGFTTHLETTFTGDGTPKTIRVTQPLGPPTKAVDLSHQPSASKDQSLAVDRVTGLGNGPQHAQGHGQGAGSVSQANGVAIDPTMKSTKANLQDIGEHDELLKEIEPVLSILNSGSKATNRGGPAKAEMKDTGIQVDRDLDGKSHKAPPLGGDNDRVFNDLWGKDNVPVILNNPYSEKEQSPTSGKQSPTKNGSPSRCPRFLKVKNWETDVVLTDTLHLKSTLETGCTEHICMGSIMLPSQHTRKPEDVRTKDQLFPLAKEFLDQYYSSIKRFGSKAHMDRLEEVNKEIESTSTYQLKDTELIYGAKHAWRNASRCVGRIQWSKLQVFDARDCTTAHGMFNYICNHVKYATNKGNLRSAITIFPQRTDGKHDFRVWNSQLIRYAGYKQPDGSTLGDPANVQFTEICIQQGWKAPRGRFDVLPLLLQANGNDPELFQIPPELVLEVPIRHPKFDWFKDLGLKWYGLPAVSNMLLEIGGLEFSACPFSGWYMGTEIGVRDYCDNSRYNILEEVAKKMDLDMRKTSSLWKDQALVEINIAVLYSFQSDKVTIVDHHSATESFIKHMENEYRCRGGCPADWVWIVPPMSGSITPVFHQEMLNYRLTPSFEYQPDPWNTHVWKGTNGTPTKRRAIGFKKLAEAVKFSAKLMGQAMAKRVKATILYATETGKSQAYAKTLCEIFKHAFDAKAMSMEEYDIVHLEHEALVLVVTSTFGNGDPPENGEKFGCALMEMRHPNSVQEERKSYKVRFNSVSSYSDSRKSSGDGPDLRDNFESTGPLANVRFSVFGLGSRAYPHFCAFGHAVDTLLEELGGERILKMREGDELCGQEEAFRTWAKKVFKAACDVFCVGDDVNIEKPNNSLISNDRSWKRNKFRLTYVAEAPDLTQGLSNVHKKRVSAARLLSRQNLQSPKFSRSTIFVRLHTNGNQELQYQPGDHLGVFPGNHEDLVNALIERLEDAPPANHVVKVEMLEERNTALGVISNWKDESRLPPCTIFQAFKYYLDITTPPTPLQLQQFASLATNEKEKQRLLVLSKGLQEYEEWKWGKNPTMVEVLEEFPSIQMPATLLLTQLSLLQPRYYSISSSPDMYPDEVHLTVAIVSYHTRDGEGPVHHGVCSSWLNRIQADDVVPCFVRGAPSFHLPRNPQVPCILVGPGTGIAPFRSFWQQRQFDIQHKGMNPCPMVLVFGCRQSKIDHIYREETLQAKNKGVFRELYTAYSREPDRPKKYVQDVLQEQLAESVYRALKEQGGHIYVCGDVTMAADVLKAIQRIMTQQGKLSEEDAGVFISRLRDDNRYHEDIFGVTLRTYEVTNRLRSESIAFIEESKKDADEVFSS

Row | Compound | IC50 (Nitric oxide synthase 1) | IC50 [1] | Ki [1] | IC50 (Substance-P receptor) | IC50 (Cytochrome P450 3A4) | Ki (Cytochrome P450 3A4) | IC50 (Melanocortin receptor 4) | IC50 (Caspase-1) | IC50 ([2]; cho-k1) | IC50 (Caspase-1; read-out: IC50) [µM] | IC50 ([2]; read-out: IC50) [µM] | Ki ([2]; read-out: Ki) [µM]
1 | CCCCOc1ccc(OCCCN2CCOCC2)cc1 [PRAMOXINE] | Not Active | Not Active | Not Active | Not Active | Not Active | Not Active | Not Active | Not Active | Not Active |  |  | 
2 | COc1cccc2c1C(=O)c1c(O)c3c(c(O)c1C2=O)C[C@@](O)(C(=O)CO)C[C@@H]3O[C@H]1C[C@H](N)[C@H](O)[C@H](C)O1 [DOXORUBICIN] | Not Active | Not Active | Not Active | Not Active | Not Active | Not Active | Not Active |  | Not Active | 12.2 |  | 
3 | C[C@H]1C[C@H]2[C@@H]3CCC4=CC(=O)C=C[C@]4(C)[C@@]3(Cl)[C@@H](O)C[C@]2(C)[C@@]1(O)C(=O)CO [BECLOMETHASONE] | Not Active | Not Active | Not Active | Not Active | Not Active | Not Active | Not Active | Not Active | Not Active |  |  | 
4 | CCN(CC)CCOC(=O)c1ccc(N)cc1 [PROCAINE] | Not Active | Not Active | Not Active | Not Active | Not Active | Not Active | Not Active | Not Active | Not Active |  |  | 
5 | O=C(O)Cc1ccccc1Nc1c(Cl)cccc1Cl [DICLOFENAC] | Not Active | Not Active | Not Active | Not Active | Not Active | Not Active | Not Active | Not Active | Not Active |  |  | 
6 | CC(C)[C@H]1CC[C@H](C(=O)N[C@H](Cc2ccccc2)C(=O)O)CC1 [NATEGLINIDE] | Not Active | Not Active | Not Active | Not Active | Not Active | Not Active | Not Active | Not Active | Not Active |  |  | 
7 | Nc1c(CC(=O)O)cccc1C(=O)c1ccc(Br)cc1 [BROMFENAC] | Not Active | Not Active | Not Active | Not Active | Not Active | Not Active | Not Active | Not Active | Not Active |  |  | 
8 | CC(=O)Nc1cccc(O)c1 [METACETAMOL] | Not Active | Not Active | Not Active | Not Active | Not Active | Not Active | Not Active | Not Active | Not Active |  |  | 
9 | COc1ccc2c(c1)c(CC(=O)O)c(C)n2C(=O)c1ccc(Cl)cc1 [INDOMETHACIN] | Not Active | Not Active | Not Active | Not Active | Not Active | Not Active | Not Active | Not Active | Not Active |  |  | 
10 | C[C@H]1O[C@@H](O[C@H]2[C@@H](O)C[C@H](O[C@H]3[C@@H](O)C[C@H](O[C@H]4CC[C@@]5(C)[C@H](CC[C@@H]6[C@@H]5CC[C@]5(C)[C@@H](C7=CC(=O)OC7)CC[C@]65O)C4)O[C@@H]3C)O[C@@H]2C)C[C@H](O)[C@@H]1O [DIGITOXIN] | Not Active | Not Active | Not Active | Not Active | Not Active | Not Active | Not Active | Not Active | Not Active |  |  | 
11 | S=C=Nc1cccc2ccccc12 [1-NAPHTHYLISOTHIOCYANATE] | Not Active | Not Active | Not Active | Not Active | Not Active | Not Active | Not Active | Not Active |  |  | 25.2 | 16
